Holding throughout (assay type): binding
For assay [1], the target named is T1, EVH1 domain (VASP-EVH1) (Homo sapiens, UniProt P50552). Nature of the assay: Bonding affinity to EVH1 domain by isothermal calorimetry (ITC). The text has this: (§1) With the aid of the synthetic compound 85, by way of an example, the ligand peptides were synthetized with partially or completely substituted proline sequences and then examined for their interaction with the EVH1 domain (p=component 85). It was found therein that, due to the insertion of the mimetic 85, it was possible to increase the bonding affinity of the ligand peptides relative to the domain.
(§2) This is summarized in Table 1 below, which lists the bonding affinities of the ligand peptides as well as of the underlying native peptide ligands.
(§3) The bonding affinities were determined by means of fluorescence titration and isothermal calorimetry (p=component 85, wherein x denotes the already known PPII-mimetic amino acid according to structure 86 (presently as Fmoc-protected amino acid); and “2-Cl—F” stands for 2-Cl-phenylalanine).
On the technique in general: Isothermal titration calorimetry measures the heat released or taken up as one component is titrated into another.

Assay [2] concerns the target T1, EVH1 domain (VASP-EVH1). Nature of the assay: Bonding affinity to EVH1 domain by fluorescence titration.
From the text: as §1, §2, §3

The target in another assay is VASP-EVH1 (Homo sapiens, UniProt P50552). As to the kind of experiment: Further experiments: bonding affinity of ligand peptides to the domain (method not given). The text has this:
In addition, the observed increase in affinity with the compounds according to the invention allows for the first time ever to forego using natural amino acids completely, while still preserving the ability to bind to the EVH1 domains: […]

The next assay deals with VASP-EVH1 domain (Homo sapiens, UniProt P50552).

No end group written: not given here.

The record followed here is patent publication US9242985B2, “Structural mimetics of proline-rich peptides and use thereof” (priority 2011, dated 2016).

T1 sequence (P50552 2-113): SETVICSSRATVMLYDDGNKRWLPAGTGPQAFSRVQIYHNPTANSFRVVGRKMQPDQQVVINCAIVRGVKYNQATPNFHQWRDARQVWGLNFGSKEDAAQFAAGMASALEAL
VASP-EVH1 domain, sequence (P50552 2-113): as above
VASP-EVH1, sequence (P50552 2-113 limits assumed): as the sequence (P50552 2-113) above
From the text for VASP-EVH1 domain: In addition, based on a number of different test ligand peptides, it was possible to gain an overview of the bonding affinities.

As for `CC(=O)N[C@@H](CO)C(=O)N[C@@H](Cc1ccccc1)C(=O)N[C@@H](CCC(=O)O)C(=O)N[C@@H](Cc1ccccc1Cl)C(=O)N1CCC[C@H]1C(=O)N1CCC[C@H]1C(=O)N1CCC[C@H]1C(=O)N1CCC[C@H]1C(=O)N[C@H](C(=O)N[C@@H](CCC(=O)O)C(=O)N[C@@H](CC(=O)O)C(=O)N[C@@H](CCC(=O)O)C(=O)N[C@@H](CC(C)C)C(N)=O)[C@@H](C)O`, the Kd at EVH1 domain (VASP-EVH1) [1] came out at 2 µM; on EVH1 domain (VASP-EVH1) [2], 5 µM.

The molecule Ac-FPPPP [Ac-(SEQ ID NO: 4)-OH] came in with a dissociation constant (Kd) on VASP-EVH1 above 500 µM.

As for FPPPPT [FPPPPT], the “bonding affinity KD” value on VASP-EVH1 domain is recorded as “no measurable affinity”.

As a reminder, the Kd is the concentration at which binding is half-saturated. A low value points to a tighter complex.
